According to patent US11136561B2, “Polypeptide for the enzymatic detoxification of zearalenone, isolated polynucleotide, and associated additive, use and method” (priority 2014, dated 2021):

T1: fusion protein containing the hormone-dependent activation domain of the human estrogen receptor alpha and the DNA binding domain of the yeast Gal4 protein (Homo sapiens, UniProt P03372)
T1 construct: expressed in transfected cells; host or cells: Saccharomyces cerevisiae YZHB817 (PJ69-4a derivative, pdr5 snq2) carrying expression vector pTK103
T1 sequence (P03372 311-595 limits assumed): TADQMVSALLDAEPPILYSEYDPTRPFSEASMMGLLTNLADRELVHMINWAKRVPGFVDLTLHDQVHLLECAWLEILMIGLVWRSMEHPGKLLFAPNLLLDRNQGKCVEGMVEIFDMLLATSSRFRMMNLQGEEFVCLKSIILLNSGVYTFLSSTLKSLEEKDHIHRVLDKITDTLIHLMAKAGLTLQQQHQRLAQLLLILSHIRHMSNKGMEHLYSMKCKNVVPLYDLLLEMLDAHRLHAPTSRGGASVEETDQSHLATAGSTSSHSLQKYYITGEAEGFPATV

B1: polypeptide of SEQ ID No. 1: monooxygenase converting the keto group in position 7 of zearalenone into an ester group (protein)
chain: MTLEAIPVPEETPAQTVPTAPLSEEEREALKHRYRAERDKRIREDGIKQYRSLEGLLDVDDTKDPYTPVKPREPLNDHVDFLFLGGGFAGLIVCSHLKKTGFNDFRIIESGGDFGGVWYWNRFPGAMCDTAAMVYLPLLEETGTVPSAKYVRGPEILAHAQRIARTFDLYPHALFHTHLESLTWDEEQGVWKVKTRQGDSFTATHVGMGTGPLNKPHLPGIPGIEKFKGKAMHTARWDFATTGGGWNGEVMEGLKDKRVGVIGTGATGIQAIPELGRDSGELFVFQRTPSAVAVRGNHPIDPEWFASLDKGWQTKWNRNFIQLMSSGMAENDYVRDGWTDGVKRITARMFAEAAKAGRDPSTLSFDDFLAAYHLSDDEYMTAVRNRTNEVVNDPKTADGLKAWYRQFCKRPCFHDEFLATFNRPTVHLVDTNGQGVTEVDETGVWANGQHYDLDIIVYATGFEFNSEWTYKSGMEVYGRDGLTLTQAWKDGMKTYHGMHINGFPNLFMLQFQQGSSLASNITSNYVDSGYTIAAILNKKKELGAKTVEVPADVQSKWIEHLLTANKGLIGGPECTPGYYNNEGQEEGLKEKLNGARYPAGSLAFFDYIAEWRTNGKFEGLAFDGKQIAVQ
modifications: Trichosporon mycotoxinivorans
notes: monooxygenase converting the keto group in position 7 of zearalenone into an ester group

Assays:
[1] = target: T1, fusion protein containing the hormone-dependent activation domain of the human estrogen receptor alpha and the DNA binding domain of the yeast Gal4 protein; format: cell-based; conditions: for Concentration necessary to express 7.5 relative units of beta-galactosidase: GAL7-lacZ reporter, 18 hours at 30° C.
Text: The purified metabolite iZOM as described in Example 2 was used to determine its toxicity, expressed by its estrogenic activity, and compared to that of zearalenone.
For measuring the estrogenic activity, a specially prepared reporter yeast strain, YZHB817 (Bachmann, H.: Phenotypic detection of zearalenone in Saccharomyces cerevisiae. Master thesis BOKU Vienna, 2003) was used. This strain is derived from yeast-two hybrid strain PJ69-4a (MATa trp1-901 leu2-3,112 ura3-52 his3-200 gal4-(deleted) gal80(deleted) LYS2::GAL1-HIS3 GAL2-ADE2 met2::GAL7-lacZ) (James et al. 1996, Genetics; 144(4), 1425-1436). PJ69-4a was further developed by the disruption of the ABC transporters PDR5 and SNQ2. […] This strain was subsequently transformed with an expression vector (pTK103) that triggers the production of a fusion protein containing the hormone-dependent activation domain of the human estrogen receptor alpha and the DNA binding domain of the yeast Gal4 protein, in order to obtain the strain YZHB817.
In the presence of estrogenic substances, the yeast strain YZHB817 induces the expression of the GAL7 lacZ reporter gene, whose product, the enzyme beta-galactosidase, is easy to measure by the hydrolyzation of the chromogenic substrate ONPG (ortho-nitrophenyl-beta-galactoside) at 420 nm (Current Protocols in Molecular Biology, Chapter 13, Yeast (Eds. Lundblad V, Struhl, K.)).
[…] of the estrogenic test solution (ZEN or iZOM) were dissolved in 50% ethanol, mixed with 1.9 ml of the yeast culture of strain […] in SC-TRP medium at a cell density of OD600=0.1, and incubated for 18 hours at 30° C. and 180 rpm. After this, the OD600 of the culture was determined, and the cell pellet (10 min, 13 krpm) of 1 ml was resuspended in […] Z buffer and permeabilized with 25 μl chloroform. […] The supernatant was measured at 420 nm, and the relative units (based on the used cell amount) were calculated as: RU=(OD420×1000)/(OD600×incubation time in min)

[2] = cited from earlier work
[3] = system: mammals; conditions: cited from earlier work
[4] = system: pigs; conditions: cited from earlier work
[5] = system: bovine; conditions: cited from earlier work
[6] = cited from earlier work; remark: listed apart in the source
[7] = extrusion and oxidants, e.g. 16 hours at 80° C. with 10% hydrogen peroxide solution; cited from earlier work
[8] = system: polypeptide of SEQ ID No. 1; test: Metabolization of ZEN by yeast strain YZGA515 expressing the polypeptide of SEQ ID No. 1 (test setup), HPLC-MS; format: cell-based, Saccharomyces cerevisiae; conditions: expressed in yeast strain YZGA515
Text: The yeast strain YZGA515 (Saccharomyces cerevisiae modified by inactivation of the ABC transporter gene PDR5 (Poppenberger et al. 2003, J. Biol. Chem., 278 (48) 47905-14) for the enhanced absorption of zearalenone (ZEN)) was transformed by the plasmid pCS57 using standard techniques. pCS57 is a plasmid derived from the yeast expression plasmid pADH-FW (Mitterbauer et. al 2002, Appl. Environ. Microbiol.; 68 (3), 1336-1346) with LEU2 as selection marker and ADH1 promoter.
In the test setup, the yeast strain YZGA515 was transformed with the pCS57 vector additionally containing the polynucleotide of SEQ ID No. 4 as BamHI-Xhol fragment after the strongly constitutive ADH1 promoter (alcohol dehydrogenase 1). This enabled the formation of the polypeptide of SEQ ID No. 1.
The yeast strain YZGA515 with the empty vector (pADH-FW without the polynucleotide of SEQ ID No.4) was transformed as negative control.
The transgenic yeasts (test setup and negative control) were cultivated in SC-LEU medium (Sherman 1991, Methods Enzymol., 194, 3-21), centrifuged and resuspended in fresh SC-LEU medium at a concentration of 2 mg/l ZEN, wherein a cell density of OD600=4 was adjusted in both cases. […]
In a further test setup, the metabolite iZOM was additionally measured quantitatively. […]

Molecule | Concentration necessary to express 7.5 relative units of beta-galactosidase [1] | Toxicity lower by a factor (than zearalenone) ([1]; toxicity expressed by estrogenic activity) | oral LD50 [2] | ZEN concentration in feeds leading to development disorders [3] | ZEN concentration in feeds that may lead to hyper-estrogenicity [4] | ZEN concentration made responsible for miscarriages [5] [ppm] | Time after oral administration at which ZEN is detectable in blood [6] [min] | Reduction of ZEN content [7] [%] | Conversion of ZEN to iZOM [8]
CC1CCCC(=O)OCCC/C=C/c2cc(O)cc(O)c2C(=O)O1 (stereo not shown) [iZOM] | about 500 ppb | about 100 |  |  |  |  |  |  | 
C[C@H]1CCCC(=O)CCC/C=C/c2cc(O)cc(O)c2C(=O)O1 [ZEN, (2E,11D)-15,17-dihydroxy-11-methyl-12-oxabicyco[12.4.0]octadeca-1(18), 2,14,16-tetraene-7,13-dione] | approximately 45 ppb |  | up to 20,000 mg/kg body weight | above 0.5 ppm | above 1.5 ppm | 12 | 30 | 83.9 | 
B1 |  |  |  |  |  |  |  |  | able to convert ZEN to its metabolite iZOM
